Assay results: US6060516A, “N^1 -propargylhydrazines, N^2 -propargylhydrazines and their analogs for the treatment of depression, anxiety and neurodegeneration” (CV Technologies, Inc., priority 1998, dated 2000)

Tests used:
[1] = test system: valine, alanine and gamma-aminobutyric acid (GABA) concentrations in rat brain; assay: Brain valine, alanine and gamma-aminobutyric acid (GABA) concentrations; type: in vivo; conditions: for GABA / Valine: 2 × 75 μmol/kg per os
[2] = target: T1, rat brain monoamine oxidase-B (Rattus norvegicus, UniProt P19643); assay: Monoamine oxidase-B inhibiting activity in vitro (radiochemical, β-phenylethylamine substrate, rat brain homogenate); type: biochemical; conditions: for inhibition at 100 µM: 1 × 10^-4 M; for inhibition at 10 µM: 1 × 10^-5 M; for inhibition at 1 µM: 1 × 10^-6 M; for inhibition at 0.1 µM: 1 × 10^-7 M; for inhibition at 0.01 µM: 1 × 10^-8 M
T1 construct: appropriately diluted homogenates of rat brain or liver; from tissue; host or cells: rat brain or liver homogenate
T1 sequence (P19643 1-520): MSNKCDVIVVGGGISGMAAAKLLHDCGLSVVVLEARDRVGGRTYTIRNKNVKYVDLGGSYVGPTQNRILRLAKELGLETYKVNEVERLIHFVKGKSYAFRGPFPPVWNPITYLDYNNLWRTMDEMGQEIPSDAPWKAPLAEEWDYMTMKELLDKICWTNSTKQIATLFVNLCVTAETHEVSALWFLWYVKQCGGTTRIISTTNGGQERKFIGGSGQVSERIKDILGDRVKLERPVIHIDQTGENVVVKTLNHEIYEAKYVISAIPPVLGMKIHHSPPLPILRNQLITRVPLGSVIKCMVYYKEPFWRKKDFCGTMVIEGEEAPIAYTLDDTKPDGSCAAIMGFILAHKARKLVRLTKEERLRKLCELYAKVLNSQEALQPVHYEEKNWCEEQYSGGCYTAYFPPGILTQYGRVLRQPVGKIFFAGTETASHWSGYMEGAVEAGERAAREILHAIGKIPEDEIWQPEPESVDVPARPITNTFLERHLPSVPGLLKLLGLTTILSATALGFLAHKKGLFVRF
Procedure: Radiolabelled β-phenylethylamine was employed as a substrate for monoamine oxidase-B. Various concentrations of the compounds of interest were incubated in appropriately diluted homogenates of rat brain or liver in a 0.2 M potassium phosphate buffer. Incubations proceeded at 37° C. for 10 minutes. Incubation was terminated by the addition of acid and the radiolabelled product (phenylacetaldehyde and phenylacetic acid) was extracted and quantified by liquid scintillation counting procedures. Incubations were done in triplicate and incubations containing phenelzine were included for comparison. The percent inhibition of monoamine oxidase-B activity compared to controls containing no drug was calculated.

[3] = test system: serotonin uptake in rat striatal prisms; assay: Serotonin (5-HT) uptake inhibition in rat striatal prisms in vitro; type: biochemical
Procedure: CVT-P040 was evaluated for the ability to inhibit serotonin uptake in rat striatal prisms using the procedure of Martin, I. L., Baker, G. B. and Mitchell, P. R. (1978), The effect of viloxazine hydrochloride on the transport of noradrenaline, dopamine, 5-hydroxytryptamine and γ-aminobutyric acid in rat brain tissue Neuropharmacology 17: 421-423. Briefly, untreated rats were killed by guillotine decapitation, their brains removed, placed on an ice-cooled plate and the striatum was dissected out from the rest of the brain. The striatum was then chopped into 0.1×0.1×2 mm prisms using a Mcllwain tissue chopper and suspended in 5 volumes incubation medium containing 123 mM sodium chloride, 5 mM potassium chloride, 2.7 mM calcium chloride, 1.2 mM magnesium sulphate, 20 mM TRIS-HCl buffer (pH 7.5), 1 mM ascorbic acid, 10 mM glucose and 12.5 μM nialamide. The suspension was stored out of direct light and buried in ice. Aliquots (1 ml) of the tissue suspension were added to flasks containing 4 ml of incubation medium and this mixture was incubated for 15 min at 37° C. in a shaking water bath. Next, 10 µl of the appropriate chemical was added to each tube except the blanks and controls, followed by the addition of 10 μl of ^3 H-5-HT (final concentration 0.1 μM). The mixtures were incubated for 5 min at 37° C., then quickly filtered with a Millipore vacuum filter apparatus and rinsed two times with 5 ml warm (37° C.) incubation medium. Filters were transferred to scintillation vials and 10 ml Ready Safe scintillation cocktail was added to each. Radioactive content per tube was counted using a liquid scintillation spectrophotometer. Percent 5-HT uptake inhibition was calculated by applying the following equation: [formula]

MAO-A = MAO-A inhibition ex vivo in DSP-4 treated mice (brain); parameters: species or system mouse
Procedure: The compounds were evaluated for ex vivo monoamine oxidase-A inhibiting activity using the radiochemical procedure of Lyles, G. A. and Callingham, B. A. (1982). […] Biochem. Pharmacol. 31: 1417-1424. Radiolabelled 5-hydroxytryptamine was used as a substrate for monoamine oxidase-A. The compounds of interest were either injected intraperitonealy in DMSO or administered by gavage in water for various periods. The animals were killed by decapitation and the brains and livers immediately removed and frozen until assayed for monoamine oxidase-A activity. Tissues were homogenized and appropriately diluted in buffer prior to incubation. Incubations proceeded at 37° C. for 10 minutes. Incubation was terminated by the addition of acid and the radiolabelled product (5-hydroxyindoleacetaldehyde and 5-hydroxyindoleacetic acid) was extracted and quantified by liquid scintillation counting procedures. Incubations were done in triplicate and incubations containing phenelzine were included for comparison. The percent inhibition of monoamine oxidase-A activity compared to controls containing no drug was calculated.
Neuroprotectant activity was evaluated by examining the prevention of DSP-4 induced noradrenaline depletion in mouse hippocampus as described in Yu, P. H., Davis, B. A., Fang, J. and Boulton, A. A. (1994), Neuroprotective effect of some monoamine oxidase-B inhibitors against DSP-4 induced noradrenaline depletion in the mouse hippocampus, J. Neurochem. 63: 1820-1828. Briefly, mice were injected (i.p.) with either 20% DMSO or potential neuroprotectants (10 mg/kg in 20% DMSO). One hour later they were injected with either water or DSP-4 (50 mg/kg in water). One week later the mice were killed and the brains removed and the hippocampus dissected out. The hippocampus was frozen and saved for estimation of noradrenaline and other aminergic neurotransmitters and their metabolites as in Sloley, B. D. and Goldberg J. I. (1991), Determination of γ-glutamyl conjugates of monoamines by means of high-performance liquid chromatography with electrochemical detection and application to gastropod tissues, J. Chromatog. 567: 49-56. The rest of the brain was frozen and retained for estimation of monoamine oxidase activities ex vivo as described earlier.

MAO-B = MAO-B inhibition ex vivo in DSP-4 treated mice (brain); parameters: species or system mouse
Procedure: Biochem. Pharmacol. 31: 1417-1424. Radiolabelled β-phenylethylamine was employed as a substrate for monoamine oxidase-B. The compounds of interest were either injected intraperitoneally in DMSO or administered by gavage in water for various periods. The animals were killed by decapitation and the brains and livers immediately removed and frozen until assayed for monoamine oxidase-B activity. Tissues were homogenized and appropriately diluted in buffer prior to incubation. Incubations proceeded at 37° C. for 10 minutes. Incubation was terminated by the addition of acid and the radiolabelled product (phenylacetic acid) was extracted and quantified by liquid scintillation counting procedures. Incubations were done in triplicate and incubations containing phenelzine were included for comparison. The percent inhibition of monoamine oxidase-B activity compared to controls containing no drug was calculated.
Neuroprotectant activity was evaluated by examining the prevention of DSP-4 induced noradrenaline depletion in mouse hippocampus as described in Yu, P. H., Davis, B. A., Fang, J. and Boulton, A. A. (1994), Neuroprotective effect of some monoamine oxidase-B inhibitors against DSP-4 induced noradrenaline depletion in the mouse hippocampus, J. Neurochem. 63: 1820-1828. Briefly, mice were injected (i.p.) with either 20% DMSO or potential neuroprotectants (10 mg/kg in 20% DMSO). […]

[4] = test system: NA, DA, 5-HT, 5-HIAA and DOPAC concentrations in rat hypothalamus; assay: Rat hypothalamus amine and amine metabolite concentrations; type: in vivo; conditions: 2 × 75 μmol/kg per os
[5] = 10 mg/kg i.p. then DSP-4 50 mg/kg, 20% DMSO control experiment
[6] = 10 mg/kg then DSP-4 50 mg/kg, saline control experiment

Row | Compound | GABA [1] [µg/g] | Valine [1] [µg/g] | inhibition at 100 µM [2] [%] | inhibition at 10 µM [2] [%] | inhibition at 1 µM [2] [%] | inhibition at 0.1 µM [2] [%] | inhibition at 0.01 µM [2] [%] | % Inhibition (serotonin uptake) ([3]; 1 × 10^-4 M) [%] | % Inhibition (serotonin uptake) ([3]; 1 × 10^-5 M) [%] | % Inhibition (serotonin uptake) ([3]; 1 × 10^-6 M) [%] | MAO-A % Inhibition (MAO-A; [5]) [%] | preference for MAO-A inhibition (MAO-A; DSP-4 experiment, 10 mg/kg, in words) | MAO-B % Inhibition (MAO-B; [5]) [%] | MAO-A % Inhibition (MAO-A; [6]) [%] | MAO-B % Inhibition (MAO-B; [6]) [%] | 5-HT [4] [ng/g] | DA [4] [ng/g] | elevation of alanine levels ([1]; phenelzine) | brain GABA concentrations ([1]; phenelzine 150 pmol/kg (so in the source), in words)
1 | C#CCN(N)CCc1ccccc1 [CVT-P040, N^1 -propargylphenelzine] | 329 ± 43 | 25.4 ± 1.8 | 99.7 | 97.9 | 88.8 | 59.8 | 19.9 | 90.1 ± 3.3 | 50.2 ± 2.5 | 49.1 ± 4.3 | 57.9 ± 2.9 | strong preference for MAO-A inhibition | 20.3 |  |  |  |  |  | 
2 | C#CCN(CCc1ccccc1)NC(C)=O [CVT-P041, N^1 -propargyl-N^2 -acetylphenelzine] | 300 ± 22 | 26.4 ± 1.4 | 92.7 | 71.3 | 28.8 | 6.2 | -2 | 22.2 ± 4.6 |  |  |  |  |  | 4.3 ± 6.2 | -3.7 | 946 | 553 ± 129 |  | 
3 | NNCCc1ccccc1 [phenelzine, 1-(2-phenyl) ethylhydrazine, reference compound] | 733 | 24.3 ± 0.8 | 100 | 100 | 90.1 | 18.3 | 6.9 |  |  |  |  |  |  |  |  | 1232 ± 87 | 607 ± 103 | about 4 fold | caused elevations in brain GABA concentrations
